Here are results for seven compounds from patent US7101908B2, “Bicyclic carbohydrate compounds useful in the treatment of infections caused by herpesviridae” (Kemin Pharma Europe B.V.B.A., priority 2001, dated 2006).

One series deals with CMV Davis strain. The series can be described thus: Plaque reduction assay in HEL cells, CMV Davis strain. Format: cell-based, human cytomegalovirus. The settings on record: human embryonic lung fibroblast (HEL) cells; for IC50: Human betaherpesvirus 5, HEL, 168 h, plaques counted on day 7, read-out: IC50 CMV David Strain (inhibitory concentration required to reduce virus plaque formation by 50%). As to the method:
(§1) The compounds were screened against various pathogenic viruses and more specific the human cytomegalovirus (CMV). […] After 2 hours of incubation at 37° C., the infected cells were replenished with 0.1 ml of medium containing serial dilutions of the test compound. On day 7 the plaques were counted microscopically after staining the cells with Giemsa's solution. The minimum antiviral concentration was expressed as the dose required to inhibit virus-induced plaque formation by 50%.
In general terms: In a plaque reduction assay, fewer plaques than in the control indicate reduced infectivity or spread.

In another series the test system is CMV AD-169 strain. Description: Plaque reduction assay in HEL cells, CMV AD-169 strain. The format is cell-based, human cytomegalovirus. The settings on record: human embryonic lung fibroblast (HEL) cells; for IC50: Human betaherpesvirus 5, AD169, HEL, 168 h, plaques counted on day 7, read-out: IC50 CMV AD-169 Strain (inhibitory concentration required to reduce virus plaque formation by 50%); for IC50 CMV AD-169 Strain (inhibitory concentration required to reduce virus plaque formation by 50%): plaques counted on day 7. As for the experimental part:
as §1

The conditions of series [1]: intravenous ganciclovir; people; cited from earlier work.

Values after ≈ are worked out from the molar mass of the structure shown.

For `CO[C@@H]1[C@@H](OC)[C@H](c2ccccc2)O[C@@H]2CO[C@@H](c3ccccc3)O[C@@H]12` [Compound A1], the melting point was 97 to 98 °C. Also, in the series on CMV Davis strain, the IC50 is 2 µg/mL (≈ 5.61 µM). In addition, the IC50 in the series with CMV AD-169 strain was found to be 2.7 µg/mL (≈ 7.58 µM).
As for `CO[C@@H]1[C@@H](OC)[C@H](Cc2ccccc2)O[C@@H]2CO[C@@H](c3ccccc3)O[C@@H]12` [Compound A2], the IC50 in the series with CMV Davis strain stood at 20 µg/mL (≈ 54 µM); in the series with CMV AD-169 strain it was 5 µg/mL (≈ 13.5 µM).
Turning to `CCO[C@@H]1[C@@H](OCC)[C@H](Cc2ccccc2)O[C@@H]2CO[C@@H](c3ccccc3)O[C@@H]12` [Compound A3], the melting point fell in the range of 87 to 89 °C. Besides, the IC50 in the series with CMV Davis strain was found to be 3.2 µg/mL (≈ 8.03 µM). For the same compound, the “IC50 CMV David Strain (inhibitory concentration required to reduce virus plaque formation by 50%)” value in the series on CMV Davis strain (plaques counted on day 7) came to 2.8 µg/mL (≈ 7.03 µM). In the series with CMV AD-169 strain, the IC50 is 2.5 µg/mL (≈ 6.27 µM) and the “IC50 CMV AD-169 Strain (inhibitory concentration required to reduce virus plaque formation by 50%)” value was determined as 2.7 µg/mL (≈ 6.78 µM).
Compound `C#CCO[C@@H]1[C@@H](OCC#C)[C@H](Cc2ccccc2)O[C@@H]2CO[C@@H](c3ccccc3)O[C@@H]12` [Compound A5] returned a melting point of 81 to 83 °C. Also, the IC50 with CMV Davis strain is 0.5 µg/mL (≈ 1.19 µM). The IC50 in the series on CMV AD-169 strain was 0.5 µg/mL (≈ 1.19 µM).
Take `CO[C@@H]1[C@@H](OC)[C@H](c2ccccc2)O[C@@H]2CO[C@@H](c3ccc4ccccc4c3)O[C@@H]12` [Compound A6]: the melting point was 135 °C. Also, in the series with CMV Davis strain, the IC50 was 0.8 µg/mL (≈ 1.97 µM). Moreover, the IC50 in the series on CMV AD-169 strain is 0.47 µg/mL (≈ 1.16 µM).
`CO[C@@H]1[C@@H](OC)[C@H](c2ccccc2)O[C@@H]2CO[C@@H](c3ccc(-c4ccccc4)cc3)O[C@@H]12` [Compound A7] displayed a melting point of 111 to 112 °C. In the series on CMV Davis strain, the IC50 was found to be 0.6 µg/mL (≈ 1.39 µM). For the same compound, the IC50 in the series with CMV AD-169 strain is 0.8 µg/mL (≈ 1.85 µM).
Turning to `Nc1nc(O)c2ncn(COC(CO)CO)c2n1` [Ganciclovir, reference compound], in series [1], the “IV recipients who have to stop treatment because of side effects” value is “More than 10%”. Moreover, the IC50 in the series with CMV Davis strain is 0.5 µg/mL (≈ 1.96 µM). For the same compound, in the series on CMV AD-169 strain, the IC50 was 1.3 µg/mL (≈ 5.09 µM) and the “IC50 CMV AD-169 Strain (inhibitory concentration required to reduce virus plaque formation by 50%)” value came to 2.5 µg/mL (≈ 9.79 µM).

The melting point is the temperature of the solid-liquid transition.
